Values after ≈ are worked out from the molar mass of the structure shown. Where two headings read alike, the source gives them in different places.
Key:
[1] = tested on: plasma corticosterone; assay: Plasma corticosterone in rats after oral dosing (ELISA); format: in vivo, Sprague Dawley rats; settings: for Corticosteroid Levels (mean ± SEM): 4 h after gavage
Method: To generate the results shown in FIG. 1, five groups (eight per group) of rats were used. The rats were maintained on a 14/10 hour light/dark cycle and allowed free access to food and water. Each rat was dosed (200 mg drug/kg body weight) via a gastric tube. […] All of the rats were dosed between 2.00 and 3.00 pm and were sacrificed four hours later (between 6.00 and 7.00 pm). Plasma was prepared and the concentration of corticosterone determined by an enzyme linked immuno assay (ELISA). In rats, the predominant active glucocorticoid is corticosterone; in humans, the predominant active glucucorticoid is the closely related molecule cortisol.
The rats were maintained and dosed as described above. Plasma was prepared and the concentration of corticosterone in the plasma determined by ELISA.
The rats were maintained as described above; the drugs were suspended in olive oil, and each rat was dosed once via gastric tube to achieve a dose of 200 mg/kg. All of the rats were dosed at a specific time so that all terminations occurred between 6 and 7 pm. […] Following sacrifice, plasma was prepared, and the concentration of corticosterone in the plasma was determined by ELISA. In the same plasma samples, total cholesterol levels were also determined.
In the Table, corticosterone levels (mean±SEM; ng/mL) were determined four hours after oral gavage of the indicated drug (N=10/group). There was a single control group (dosed with vehicle).
Corticosterone levels (mean±SEM; ng/mL) were determined at the indicated times after oral gavage of the indicated drug at 200 mg/kg. […] The means of the vehicle treated groups are used as the time zero control point.

[2] = tested on: testosterone levels; assay: Testosterone levels in rats after oral dosing; format: in vivo, Sprague Dawley rats; settings: for Testosterone levels (mean ± SEM): 4 h after gavage
Description: There was a single control group (dosed with vehicle).
The means of the vehicle treated groups are used as the time zero control point.

[3] = tested on: Candida glabrata; assay: Antifungal MIC; format: cell-based; settings: Nakaseomyces glabratus
[4] = tested on: Candida guilliermondii; assay: Antifungal MIC; format: cell-based; settings: Meyerozyma guilliermondii, DSM11947; DSM strain 11947, 48 h
[5] = tested on: Candida kefyr; assay: Antifungal MIC; format: cell-based; settings: Kluyveromyces marxianus, DSM11954; DSM strain 11954, 48 h
[6] = tested on: Candida parapsilosis; assay: Antifungal MIC; format: cell-based; settings: Lodderomyces parapsilosis
[7] = tested on: Cryptococcus neoformans; assay: Antifungal MIC; format: cell-based
[8] = tested on: Issatchenkia orientalis; assay: Antifungal MIC; format: cell-based; settings: Pichia kudriavzevii
[9] = 28 day GLP toxicity study in dogs
[10] = DSM11959, DSM strain 11959, 48 h
[11] = DSM11960, DSM strain 11960, 48 h
[12] = dogs, 2, 6.5, 20 mg/kg/day, 28 days

CC(=O)N1CCN(c2ccc(OCC3COC(Cn4ccnc4)(c4ccc(Cl)cc4Cl)O3)cc2)CC1 (racemic) [Racemic ketoconazole, 1-acetyl-4-[4-[[2-(2,4-dichlorophenyl)-2-[(1H-imidazol-1-yl)-methyl]-1,3-dioxolan-4-yl]methoxy]phenyl]piperazine]
efficacy at lowering corticosterone, time course (FIG. 3) ([1]; 200 mg/kg oral, up to 24 hours): intermediate between the two enantiomers
Corticosteroid Levels (mean ± SEM) ([1]; single oral 50 mg/kg): 215 ± 20.7 ng/mL
Corticosteroid Levels (mean ± SEM) ([1]; single oral 100 mg/kg): 210 ± 15.5 ng/mL
Corticosteroid Levels (mean ± SEM), time course ([1]; single oral 200 mg/kg, 4 h): 134 ± 10 ng/mL
Corticosteroid Levels (mean ± SEM) ([1]; single oral 200 mg/kg): 135 ± 13.7 ng/mL
Corticosteroid Levels (mean ± SEM), time course ([1]; single oral 200 mg/kg, 8 h): 163 ± 11 ng/mL
Corticosteroid Levels (mean ± SEM), time course ([1]; single oral 200 mg/kg, 12 h): 153 ± 14 ng/mL
Corticosteroid Levels (mean ± SEM), time course ([1]; single oral 200 mg/kg, 16 h): 132 ± 6 ng/mL
Corticosteroid Levels (mean ± SEM), time course ([1]; single oral 200 mg/kg, 20 h): 147 ± 17 ng/mL
Corticosteroid Levels (mean ± SEM), time course ([1]; single oral 200 mg/kg, 24 h): 151 ± 14 ng/mL
Corticosteroid Levels (mean ± SEM) ([1]; single oral 400 mg/kg): 113 ± 6.6 ng/mL
Corticosteroid Levels (mean ± SEM) ([1]; single oral 600 mg/kg): 115 ± 14.3 ng/mL
Testosterone levels (mean ± SEM) ([2]; single oral 50 mg/kg): 2.7 ± 0.6 nmol/L
Testosterone levels (mean ± SEM) ([2]; single oral 100 mg/kg): 1.7 ± 0.5 nmol/L
Testosterone levels (mean ± SEM), time course ([2]; single oral 200 mg/kg, 4 h): 1.6 ± 0.6 nmol/L
Testosterone levels (mean ± SEM) ([2]; single oral 200 mg/kg): 0.4 ± 0.2 nmol/L
Testosterone levels (mean ± SEM), time course ([2]; single oral 200 mg/kg, 8 h): 8.0 ± 1.0 nmol/L
Testosterone levels (mean ± SEM), time course ([2]; single oral 200 mg/kg, 12 h): 4.6 ± 0.6 nmol/L
Testosterone levels (mean ± SEM), time course ([2]; single oral 200 mg/kg, 16 h): 3.8 ± 0.5 nmol/L
Testosterone levels (mean ± SEM), time course ([2]; single oral 200 mg/kg, 20 h): 5.6 ± 0.8 nmol/L
Testosterone levels (mean ± SEM), time course ([2]; single oral 200 mg/kg, 24 h): 5.9 ± 0.5 nmol/L
Testosterone levels (mean ± SEM) ([2]; single oral 400 mg/kg): 0.4 ± 0.2 nmol/L
Testosterone levels (mean ± SEM) ([2]; single oral 600 mg/kg): 0.8 ± 0.1 nmol/L
MIC ([3]; DSM11226, 48 h): 0.5 µg/mL (≈ 0.941 µM)
MIC ([3]; DSM11950, 48 h): 0.25 µg/mL (≈ 0.47 µM)
MIC [4]: 0.125 µg/mL (≈ 0.235 µM)
MIC [5]: 0.03 µg/mL (≈ 0.0565 µM)
MIC ([6]; DSM05784, 48 h): 0.03 µg/mL (≈ 0.0565 µM)
MIC ([6]; DSM11224, 48 h): < 0.015 µg/mL
MIC [7, 10]: 0.06 µg/mL (≈ 0.113 µM)
MIC [7, 11]: 0.125 µg/mL (≈ 0.235 µM)
MIC ([8]; DSM11956, 48 h): 0.25 µg/mL (≈ 0.47 µM)
MIC ([8]; DSM11958, 48 h): 1 µg/mL (≈ 1.88 µM)
body weight losses ([9]; dogs, 40 mg/kg/day, led to cessation of dosing after 9 days): up to 17.3%

CC(=O)N1CCN(c2ccc(OC[C@@H]3CO[C@@](Cn4ccnc4)(c4ccc(Cl)cc4Cl)O3)cc2)CC1 [DIO-902, 2S,4R cis-1-acetyl-4-[4-[[2-(2,4-dichlorophenyl)-2-(1H-imidazol-1-ylmethyl)-1,3-dioxolan-4-yl]methoxyl]phenyl]piperazine]
Corticosteroid Levels (mean ± SEM) ([1]; single oral 50 mg/kg): 186 ± 14.9 ng/mL
Corticosteroid Levels (mean ± SEM) ([1]; single oral 100 mg/kg): 139 ± 10.9 ng/mL
Corticosteroid Levels (mean ± SEM), time course ([1]; single oral 200 mg/kg, 4 h): 98 ± 10 ng/mL
Corticosteroid Levels (mean ± SEM) ([1]; single oral 200 mg/kg): 100 ± 8.6 ng/mL
Corticosteroid Levels (mean ± SEM), time course ([1]; single oral 200 mg/kg, 8 h): 116 ± 13 ng/mL
Corticosteroid Levels (mean ± SEM), time course ([1]; single oral 200 mg/kg, 12 h): 113 ± 8 ng/mL
Corticosteroid Levels (mean ± SEM), time course ([1]; single oral 200 mg/kg, 16 h): 133 ± 17 ng/mL
Corticosteroid Levels (mean ± SEM), time course ([1]; single oral 200 mg/kg, 20 h): 136 ± 12 ng/mL
Corticosteroid Levels (mean ± SEM), time course ([1]; single oral 200 mg/kg, 24 h): 103 ± 14 ng/mL
Corticosteroid Levels (mean ± SEM) ([1]; single oral 400 mg/kg): 84 ± 11.6 ng/mL
Corticosteroid Levels (mean ± SEM) ([1]; single oral 600 mg/kg): 80 ± 7.8 ng/mL
time for testosterone levels to return to normal ([2]; 200 mg/kg): ≤ 8 h
Testosterone levels (mean ± SEM) ([2]; single oral 50 mg/kg): 2.6 ± 0.7 nmol/L
Testosterone levels (mean ± SEM) ([2]; single oral 100 mg/kg): 0.8 ± 0.3 nmol/L
Testosterone levels (mean ± SEM), time course ([2]; single oral 200 mg/kg, 4 h): 0.8 ± 0.2 nmol/L
Testosterone levels (mean ± SEM) ([2]; single oral 200 mg/kg): 0.2 ± 0.1 nmol/L
Testosterone levels (mean ± SEM), time course ([2]; single oral 200 mg/kg, 8 h): 5.9 ± 0.8 nmol/L
Testosterone levels (mean ± SEM), time course ([2]; single oral 200 mg/kg, 12 h): 3.4 ± 0.5 nmol/L
Testosterone levels (mean ± SEM), time course ([2]; single oral 200 mg/kg, 16 h): 3.9 ± 0.6 nmol/L
Testosterone levels (mean ± SEM), time course ([2]; single oral 200 mg/kg, 20 h): 5.2 ± 0.6 nmol/L
Testosterone levels (mean ± SEM), time course ([2]; single oral 200 mg/kg, 24 h): 4.4 ± 0.7 nmol/L
Testosterone levels (mean ± SEM) ([2]; single oral 400 mg/kg): 0.3 ± 0.1 nmol/L
Testosterone levels (mean ± SEM) ([2]; single oral 600 mg/kg): 0 ± 0 nmol/L
MIC ([3]; DSM11226, DSM strain 11226, 48 h, read-out: MIC): 0.5 µg/mL (≈ 0.941 µM)
MIC ([3]; DSM11950, DSM strain 11950, 48 h, read-out: MIC): 0.25 µg/mL (≈ 0.47 µM)
MIC [4]: 0.06 µg/mL (≈ 0.113 µM)
MIC [5]: 0.03 µg/mL (≈ 0.0565 µM)
MIC ([6]; DSM05784, DSM strain 05784, 48 h, read-out: MIC): 0.03 µg/mL (≈ 0.0565 µM)
MIC ([6]; DSM11224, DSM strain 11224, 48 h, read-out: MIC): 0.03 µg/mL (≈ 0.0565 µM)
MIC [7, 10]: 0.03 µg/mL (≈ 0.0565 µM)
MIC [7, 11]: 0.125 µg/mL (≈ 0.235 µM)
MIC ([8]; DSM11956, DSM strain 11956, 48 h, read-out: MIC): 0.25 µg/mL (≈ 0.47 µM)
MIC ([8]; DSM11958, DSM strain 11958, 48 h, read-out: MIC): 1 µg/mL (≈ 1.88 µM)
QTc ([9]; dogs, 20 mg/kg/day, 28 days): no obvious QTc prolongation
food eaten less than placebo control group ([9]; dogs, 20 mg/kg/day, 28 days): 25-35%
body weight gain ([9]; dogs, 20 mg/kg/day, 28 days, females (placebo 0.9 kg)): 0.14 kg
body weight gain ([9]; dogs, 20 mg/kg/day, 28 days, males (placebo 1.1 kg)): 0.25 kg
change in serum chemistry measures [9, 12]: reduction in cholesterol
hematology [9, 12]: no hematological changes noted
ophthalmological and electrocardiographic parameters [9, 12]: no measurable effects
microscopic findings ([9]; dogs, any dose, 28 days): no remarkable microscopic findings

Reference: US11478471B2, “Methods and compositions for treating diabetes, metabolic syndrome and other conditions” (priority 2005, dated 2022)
